EC50 and solubility data for four compounds are collected here from patent US20250382344A1, “Soluble GLP1/GIP/NPY2 Receptor Triple Agonists” (Boehringer Ingelheim International GmH, priority 2024, published 2025).

Where two headings read alike, the source gives them in different places.

One data set has as its target T1, hGLP1R (Homo sapiens, UniProt P43220).
T1 construct: expressed in transfected cells; host or cells: HEK-293 CRE-luciferase reporter cells
Put plainly: hGLP1R CreLuc assay in 0.5% and 100% plasma (HEK-293 CRE-luciferase reporter cells). The class given is cell-based. The note with it: HEK-293 reporter cells. For orientation: A reporter such as luciferase makes a cellular process visible.

In the next data set the target is T2, hGIPR (Homo sapiens, UniProt P48546).
T2 construct: expressed in transfected cells; host or cells: CHO CRE-luciferase reporter cells
T2 sequence (P48546 22-466): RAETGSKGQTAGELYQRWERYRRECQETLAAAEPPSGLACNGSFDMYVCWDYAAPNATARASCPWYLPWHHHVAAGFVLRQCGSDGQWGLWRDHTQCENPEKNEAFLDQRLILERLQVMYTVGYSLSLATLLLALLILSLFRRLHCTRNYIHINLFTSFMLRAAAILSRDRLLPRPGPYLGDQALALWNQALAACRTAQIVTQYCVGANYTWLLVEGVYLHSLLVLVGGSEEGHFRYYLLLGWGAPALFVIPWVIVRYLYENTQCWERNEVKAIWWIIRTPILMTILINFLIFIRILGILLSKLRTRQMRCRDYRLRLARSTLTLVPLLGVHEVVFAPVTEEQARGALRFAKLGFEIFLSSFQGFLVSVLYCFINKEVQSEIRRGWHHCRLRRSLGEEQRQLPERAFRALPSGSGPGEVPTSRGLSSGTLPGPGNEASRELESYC
Put plainly: hGIPR CreLuc assay in 0.5% and 100% plasma (CHO CRE-luciferase reporter cells). The data set is classed as cell-based.

A further data set concerns the target T3, hNPY2R (Homo sapiens, UniProt P49146).
T3 construct: expressed in transfected cells; host or cells: HEK-293 CRE-luciferase reporter cells
T3 sequence (P49146 1-381): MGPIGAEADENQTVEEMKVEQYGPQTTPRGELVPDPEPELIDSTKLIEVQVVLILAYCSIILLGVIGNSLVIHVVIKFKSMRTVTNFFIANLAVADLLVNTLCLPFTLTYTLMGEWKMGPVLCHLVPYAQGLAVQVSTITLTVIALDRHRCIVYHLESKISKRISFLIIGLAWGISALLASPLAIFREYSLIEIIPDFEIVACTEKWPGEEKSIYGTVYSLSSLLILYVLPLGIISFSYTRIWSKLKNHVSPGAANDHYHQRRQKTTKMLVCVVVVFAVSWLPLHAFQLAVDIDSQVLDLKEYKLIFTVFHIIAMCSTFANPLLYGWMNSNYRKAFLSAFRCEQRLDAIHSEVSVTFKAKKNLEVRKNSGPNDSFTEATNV
Put plainly: hNPY2R CreLuc assay in 0.5% and 100% plasma (HEK-293 CRE-luciferase reporter cells). The data set is classed as cell-based. Conditions: HEK-293 reporter cells.

Data set [1] can be described thus: Solubility in 0.1 M phosphate buffer at pH 7. The note with it: 0.1 M phosphate buffer at pH 7, 10 mg/mL final peptide concentration, shaking 2 hours at room temperature, peptides as TFA-salts; measured sample pH 6.5-7.0. The class given is physicochemical.
The mark [2] stands for this setting: 0.5% human plasma, read-out: hGLP1R 0.5% hP.
Setting [3] is: 100% human plasma, read-out: hNPY2R 100% hP.

T1 sequence (P43220 24-463): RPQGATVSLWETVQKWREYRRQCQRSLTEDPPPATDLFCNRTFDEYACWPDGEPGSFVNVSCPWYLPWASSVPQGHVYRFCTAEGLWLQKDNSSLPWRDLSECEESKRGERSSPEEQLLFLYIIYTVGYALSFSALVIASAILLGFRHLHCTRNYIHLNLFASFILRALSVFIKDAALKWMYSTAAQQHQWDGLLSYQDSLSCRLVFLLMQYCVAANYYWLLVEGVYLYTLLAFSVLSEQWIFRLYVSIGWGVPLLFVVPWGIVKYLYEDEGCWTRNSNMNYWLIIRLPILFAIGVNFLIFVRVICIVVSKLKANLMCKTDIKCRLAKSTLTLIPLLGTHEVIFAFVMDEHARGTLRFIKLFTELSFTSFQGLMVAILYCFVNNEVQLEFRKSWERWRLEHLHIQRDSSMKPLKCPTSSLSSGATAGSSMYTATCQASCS

The term solubility denotes the concentration that dissolves in the medium under given conditions. With `CC[C@H](C)[C@H](NC(=O)[C@H](CC(C)C)NC(=O)[C@H](Cc1c[nH]cn1)NC(=O)[C@H](CCCNC(=N)N)NC(=O)[C@@H](NC(=O)[C@H](Cc1ccccc1)NC(=O)[C@H](CCC(=O)O)NC(=O)C(C)(C)NC(=O)[C@H](CCC(N)=O)NC(=O)[C@H](C)NC(=O)[C@H](CCC(N)=O)NC(=O)[C@H](CCCCN)NC(=O)[C@H](CCC(=O)O)NC(=O)[C@H](CC(C)C)NC(=O)C(C)(C)NC(=O)[C@@H](NC(=O)[C@H](CO)NC(=O)[C@H](Cc1ccc(O)cc1)NC(=O)[C@H](CC(=O)O)NC(=O)[C@H](CO)NC(=O)[C@@H](NC(=O)[C@H](Cc1ccccc1)NC(=O)[C@@H](NC(=O)CNC(=O)[C@H](CCC(=O)O)NC(=O)C(C)(C)NC(=O)[C@@H](N)Cc1ccc(O)cc1)[C@@H](C)O)[C@@H](C)O)[C@@H](C)CC)C(C)C)C(=O)N[C@@H](CC(N)=O)C(=O)N[C@@H](CCCCNC(=O)COCCOCCNC(=O)CC[C@H](NC(=O)CC[C@H](NC(=O)CC[C@H](NC(=O)CC[C@H](NC(=O)CC[C@H](NC(=O)CCCCCCCCCCCCCCCCC(=O)O)C(=O)O)C(=O)O)C(=O)O)C(=O)O)C(=O)O)C(=O)NC(C)(C)C(=O)N[C@H](C(=O)N[C@@H](CCCNC(=N)N)C(=O)N[C@@H](CCC(N)=O)C(=O)N[C@@H](CCCNC(=N)N)C(=O)N[C@@H](Cc1ccc(O)cc1)C(N)=O)[C@@H](C)O` [Compound 8, Y-Aib-E-G-T-F-T-S-D-Y-S-I-Aib-L-E-K-Q-A-Q-Aib-E-F-V-R-H-L-I-N-K(1,3)-Aib-T-R-Q-R-Y-NH2.C18DA-gGlu-gGlu-gGlu-gGlu-gGlu-OEG(1,2)], the EC50 on hGLP1R (setting [2]) stood at 0.3 nM; at hGIPR (0.5% human plasma, read-out: hGIPR 0.5% hP) it was 0.3 nM; on hGIPR (100% human plasma, read-out: hGIPR 100% hP), 14.2 nM; at hNPY2R (setting [3]), 476 nM. In data set [1], the solubility at 2 h came out at 4900 µg/mL.
For `CC[C@H](C)[C@H](NC(=O)[C@H](CC(C)C)NC(=O)[C@H](Cc1c[nH]cn1)NC(=O)[C@H](CCCNC(=N)N)NC(=O)[C@H](CC(C)C)NC(=O)[C@H](Cc1ccccc1)NC(=O)[C@H](C)NC(=O)C(C)(C)NC(=O)[C@H](CCC(N)=O)NC(=O)[C@H](C)NC(=O)[C@H](CCC(N)=O)NC(=O)[C@H](CCCCN)NC(=O)[C@H](CCC(=O)O)NC(=O)[C@H](CC(C)C)NC(=O)C(C)(C)NC(=O)[C@@H](NC(=O)[C@H](CO)NC(=O)[C@H](Cc1ccc(O)cc1)NC(=O)[C@H](CC(=O)O)NC(=O)[C@H](CO)NC(=O)[C@@H](NC(=O)[C@H](Cc1ccccc1)NC(=O)[C@@H](NC(=O)CNC(=O)[C@H](CCC(=O)O)NC(=O)C(C)(C)NC(=O)[C@@H](N)Cc1ccc(O)cc1)[C@@H](C)O)[C@@H](C)O)[C@@H](C)CC)C(=O)N[C@@H](CC(N)=O)C(=O)N[C@@H](CCCCNC(=O)[C@@H](N)CCCCNC(=O)CC[C@H](NC(=O)CC[C@H](NC(=O)CC[C@H](NC(=O)CC[C@H](NC(=O)CC[C@H](NC(=O)CC[C@H](NC(=O)CCCCCCCCCCCCCCCCC(=O)O)C(=O)O)C(=O)O)C(=O)O)C(=O)O)C(=O)O)C(=O)O)C(=O)NC(C)(C)C(=O)N[C@H](C(=O)N[C@@H](CCCNC(=N)N)C(=O)N[C@@H](CCC(N)=O)C(=O)N[C@@H](CCCNC(=N)N)C(=O)N[C@@H](Cc1ccc(O)cc1)C(N)=O)[C@@H](C)O` [Compound 37, Y-Aib-E-G-T-F-T-S-D-Y-S-I-Aib-L-E-K-Q-A-Q-Aib-A-F-L-R-H-L-I-N-K(1,3)-Aib-T-R-Q-R-Y-NH2.C18DA-gGlu-gGlu-gGlu-gGlu-gGlu-gGlu-eLys(1,2)], the figures for the EC50 at hGLP1R (setting [2]) and at hNPY2R (setting [3]) were 5.8 nM and 41.3 nM, respectively. In data set [1], the solubility at 2 h came out at 9000 µg/mL.
Regarding `CC[C@H](C)[C@H](NC(=O)[C@H](CC(C)C)NC(=O)[C@H](Cc1c[nH]cn1)NC(=O)[C@H](CCCNC(=N)N)NC(=O)[C@@H](NC(=O)[C@H](Cc1ccccc1)NC(=O)[C@H](C)NC(=O)C(C)(C)NC(=O)[C@H](CCC(N)=O)NC(=O)[C@H](C)NC(=O)[C@H](CCC(N)=O)NC(=O)[C@H](CCCCN)NC(=O)[C@H](CCC(=O)O)NC(=O)[C@H](CC(C)C)NC(=O)C(C)(C)NC(=O)[C@@H](NC(=O)[C@H](CO)NC(=O)[C@H](Cc1ccc(O)cc1)NC(=O)[C@H](CC(=O)O)NC(=O)[C@H](CO)NC(=O)[C@@H](NC(=O)[C@H](Cc1ccccc1)NC(=O)[C@H](C)NC(=O)CNC(=O)[C@H](CCC(=O)O)NC(=O)C(C)(C)NC(=O)[C@@H](N)Cc1ccc(O)cc1)[C@@H](C)O)[C@@H](C)CC)C(C)C)C(=O)N[C@@H](CC(N)=O)C(=O)N[C@@H](CCCCNC(=O)[C@@H](N)CCCCNC(=O)CC[C@H](NC(=O)CC[C@H](NC(=O)CC[C@H](NC(=O)CC[C@H](NC(=O)CC[C@H](NC(=O)CC[C@H](NC(=O)CCCCCCCCCCCCCCCCC(=O)O)C(=O)O)C(=O)O)C(=O)O)C(=O)O)C(=O)O)C(=O)O)C(=O)NC(C)(C)C(=O)N[C@H](C(=O)N[C@@H](CCCNC(=N)N)C(=O)N[C@@H](CCC(N)=O)C(=O)N[C@@H](CCCNC(=N)N)C(=O)N[C@@H](Cc1ccc(O)cc1)C(N)=O)[C@@H](C)O` [Compound 85, Y-Aib-E-G-A-F-T-S-D-Y-S-I-Aib-L-E-K-Q-A-Q-Aib-A-F-V-R-H-L-I-N-K(1,3)-Aib-T-R-Q-R-Y-NH2.C18DA-gGlu-gGlu-gGlu-gGlu-gGlu-gGlu-eLys(1,2)], the EC50 was 14.5 nM at hGLP1R (100% human plasma, read-out: hGLP1R 100% hP) and 16.2 nM at hNPY2R (setting [3]). In addition, the solubility at 2 h in data set [1] turned out to be 9400 µg/mL.
On to `CC[C@H](C)[C@H](NC(=O)[C@H](CC(C)C)NC(=O)[C@H](Cc1c[nH]cn1)NC(=O)[C@H](CCCNC(=N)N)NC(=O)[C@@H](NC(=O)[C@H](Cc1ccccc1)NC(=O)[C@H](C)NC(=O)C(C)(C)NC(=O)[C@H](CCC(=O)O)NC(=O)[C@H](C)NC(=O)[C@H](CCC(N)=O)NC(=O)[C@H](CCCCN)NC(=O)[C@H](CCC(=O)O)NC(=O)[C@H](CC(C)C)NC(=O)C(C)(C)NC(=O)[C@@H](NC(=O)[C@H](CO)NC(=O)[C@H](Cc1ccc(O)cc1)NC(=O)[C@H](CC(=O)O)NC(=O)[C@H](CO)NC(=O)[C@@H](NC(=O)[C@H](Cc1ccccc1)NC(=O)[C@@H](NC(=O)CNC(=O)[C@H](CCC(=O)O)NC(=O)C(C)(C)NC(=O)[C@@H](N)Cc1ccc(O)cc1)[C@@H](C)O)[C@@H](C)O)[C@@H](C)CC)C(C)C)C(=O)N[C@@H](CC(N)=O)C(=O)N[C@@H](CCCCNC(=O)[C@@H](N)CCCCNC(=O)CC[C@H](NC(=O)CC[C@H](NC(=O)CC[C@H](NC(=O)CC[C@H](NC(=O)CC[C@H](NC(=O)CC[C@H](NC(=O)CCCCCCCCCCCCCCCCCCC(=O)O)C(=O)O)C(=O)O)C(=O)O)C(=O)O)C(=O)O)C(=O)O)C(=O)NC(C)(C)C(=O)N[C@H](C(=O)N[C@@H](CCCNC(=N)N)C(=O)N[C@@H](CCC(N)=O)C(=O)N[C@@H](CCCNC(=N)N)C(=O)N[C@@H](Cc1ccc(O)cc1)C(N)=O)[C@@H](C)O` [Compound 104, Y-Aib-E-G-T-F-T-S-D-Y-S-I-Aib-L-E-K-Q-A-E-Aib-A-F-V-R-H-L-I-N-K(1,3)-Aib-T-R-Q-R-Y-NH2.C20DA-gGlu-gGlu-gGlu-gGlu-gGlu-gGlu-eLys(1,2)], for which the EC50 came out at 2 nM at hGLP1R (setting [2]) and 17.5 nM on hNPY2R (0.5% human plasma, read-out: hNPY2R 0.5% hP). The solubility at 2 h in data set [1] came to 9400 µg/mL.
